A short description of the data set: method code SF-AS, from Bernabe, T.; Forni, F.; Bellei, S.; Cameroni, R. (1980). Partition coefficients of a series of substituted benzoic acids. Atti Soc. Nat. Mat Modena, 111(1)63-72. The conditions noted are these: pH 1.0.

In general, logD refers to lipophilicity at a set pH, counting ionised and neutral species. Lower therefore signals a more hydrophilic compound.

Structures are written as SMILES.

As for `COc1cccc(C(=O)O)c1O`, the logD came to 1.94.

Compound `O=C(O)c1ccc([N+](=O)[O-])c(O)c1` displayed a logD of 1.98. Compound `COc1ccc(C(=O)O)cc1OC` yielded a pH-dependent lipophilicity (logD) of 1.61. As for `Cc1cccc(C(=O)O)c1O`, the figure is 2.86; as for `O=C(O)c1cc([N+](=O)[O-])c(Cl)c([N+](=O)[O-])c1`, 2.5; as for `O=C(O)c1cc(Cl)ccc1[N+](=O)[O-]`, 2.13. `O=C(O)c1ccc(O)c([N+](=O)[O-])c1`: the logD came out at 1.85.

`Nc1c(Cl)cc(Cl)cc1C(=O)O`: the logD came to 1.82. `O=C(O)c1ccc(Cl)cc1[N+](=O)[O-]` yielded a logD of 2.08. As for `O=C(O)c1cc(I)ccc1O`, the figure is 2.63. The figure for `O=C(O)c1cc([N+](=O)[O-])cc([N+](=O)[O-])c1O` is 1.71; for `O=C(O)c1ccc(O)c(Cl)c1` it is 2.41. As for `Nc1cc([N+](=O)[O-])ccc1C(=O)O`, the figure is 1.91; as for `COc1cc(OC)cc(C(=O)O)c1`, 2.19.

The values above are taken from the SangsterLogP compilation.
